Experimental data: BindingDB's records for doi:10.1016/j.bmcl.2004.05.028 (Gsk, 2004)

Molecular target: Transient receptor potential cation channel subfamily V member 1 (Homo sapiens, UniProt Q8NER1)
Assay: FLIPR (Fluorescence Imaging Plate Reader)-Based Ca2+ Assay
Details: pH 7.2; 25 °C
Description: One day before the assay was performed, human TRPV1 expressed in 1321N1 astrocytoma cells were plated onto 96-well assay plates and grown until 2.5 h before the assay, and the cells were loaded with the Ca2+ reporter dye Fluo3-AM for 2 h at room temperature. After this, the cells were washed, and continuously being incubated for 30 min with medium containing test compounds at a range of different concentrations.

Chain of Transient receptor potential cation channel subfamily V member 1 (Q8NER1 whole entry): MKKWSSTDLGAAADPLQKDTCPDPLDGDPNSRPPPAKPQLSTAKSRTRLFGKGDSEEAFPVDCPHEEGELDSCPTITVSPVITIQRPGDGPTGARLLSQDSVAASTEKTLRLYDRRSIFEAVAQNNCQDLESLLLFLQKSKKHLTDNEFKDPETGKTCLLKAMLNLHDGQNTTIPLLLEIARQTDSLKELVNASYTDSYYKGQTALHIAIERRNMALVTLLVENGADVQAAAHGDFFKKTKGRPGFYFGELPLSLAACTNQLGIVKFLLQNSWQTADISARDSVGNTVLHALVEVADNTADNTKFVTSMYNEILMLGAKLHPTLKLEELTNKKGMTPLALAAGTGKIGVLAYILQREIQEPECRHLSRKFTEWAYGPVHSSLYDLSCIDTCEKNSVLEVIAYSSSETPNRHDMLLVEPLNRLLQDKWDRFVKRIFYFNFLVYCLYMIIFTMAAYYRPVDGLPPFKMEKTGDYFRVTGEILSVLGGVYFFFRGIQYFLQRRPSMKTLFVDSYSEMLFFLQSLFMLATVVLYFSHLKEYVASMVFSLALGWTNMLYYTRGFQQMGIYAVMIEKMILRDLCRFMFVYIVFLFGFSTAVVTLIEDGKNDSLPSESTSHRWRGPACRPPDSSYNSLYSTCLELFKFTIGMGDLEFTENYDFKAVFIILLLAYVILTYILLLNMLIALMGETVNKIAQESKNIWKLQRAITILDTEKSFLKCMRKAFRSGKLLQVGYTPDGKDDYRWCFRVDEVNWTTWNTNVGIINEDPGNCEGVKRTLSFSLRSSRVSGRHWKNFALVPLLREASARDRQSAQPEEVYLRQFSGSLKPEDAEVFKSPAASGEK

Row | EC50 [nM] | Compound
1 | 16 | CCN(CCNC(=O)Nc1ccccc1Br)c1cccc(C)c1 [3-(2-bromophenyl)-1-{2-[ethyl(3-methylphenyl)amino]ethyl}urea]
2 | 20 | COc1cccc(NC(=O)/C=C/c2ccc(Cl)cc2)c1 [(2E)-3-(4-chlorophenyl)-N-(3-methoxyphenyl)prop-2-enamide]
3 | 32 | Oc1cc2c(cc1O)CN(C(=S)NCCc1ccc(Cl)cc1)CCC2 [N-[2-(4-chlorophenyl)ethyl]-7,8-dihydroxy-2,3,4,5-tetrahydro-1H-2-benzazepine-2-carbothioamide]
